Source: patent US20230022157A1 (Achillion Pharmaceuticals, Inc., priority 2018, published 2023)

These compounds were tested against T1, Human Factor D (Homo sapiens, UniProt P00746) (assay: Human Factor D Assay). Conditions: Human Factor D 80 nM, substrate Z-L-Lys-SBzl, assay of Example 3; read-out: IC50 (Stars).
T1 construct: purified from human serum; purchased Complement Technology, Inc; host or cells: human serum (natural protein, not recombinant)
Type: biochemical
Description: Human Factor D (purified from human serum, Complement Technology, Inc.) at 80 nM final concentration is incubated with test compound at various concentrations for 5 min at room temperature in 50 mM Tris, 1M NaCl, pH 7.5. A synthetic substrate Z-L-Lys-SBzl and DTNB (Ellman's reagent) are added to final concentrations of 100 μM each. […] IC50 values are calculated by nonlinear regression of complement Factor D reaction rates as a function of test compound concentration.

T1 sequence (P00746 26-253): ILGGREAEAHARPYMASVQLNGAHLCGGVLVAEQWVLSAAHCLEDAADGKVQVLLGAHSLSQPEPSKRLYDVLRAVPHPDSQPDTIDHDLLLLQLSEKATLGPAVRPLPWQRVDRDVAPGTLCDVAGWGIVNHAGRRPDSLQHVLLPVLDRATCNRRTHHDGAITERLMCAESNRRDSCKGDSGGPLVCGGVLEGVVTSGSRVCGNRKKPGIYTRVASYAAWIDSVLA

| SMILES | IC50 [nM] |
| --- | --- |
| CC(=O)c1nn(CC(=O)N2[C@H](C(=O)Nc3nc(Br)ccc3C)C[C@@]3(CO)C[C@@H]23)c2c(C)cc(-c3cnc(C)nc3)cc12 [Compound 21, (1R,3S,5S)-2-(2-(3-Acetyl-7-methyl-5-(2-methylpyrimidin-5-yl)-1H-indazol-1-yl)acetyl)-N-(6-bromo-3-methylpyridin-2-yl)-5-(hydroxymethyl)-2-azabicyclo[3.1.0]hexane-3-carboxamide] | < 1000 |
| CC(=O)c1nn(CC(=O)N2[C@H](C(=O)Nc3nc(C(F)(F)F)ccc3C)C[C@@]3(C)C[C@@H]23)c2ccc(-c3cncc(S(N)(=O)=O)c3)cc12 [Compound 22, (1R,3S,5R)-2-(2-(3-Acetyl-5-(5-sulfamoylpyridin-3-yl)-1H-indazol-1-yl)acetyl)-5-methyl-N-(3-methyl-6-(trifluoromethyl)pyridin-2-yl)-2-azabicyclo[3.1.0]hexane-3-carboxamide] | < 1000 |
| CC(=O)c1nn(CC(=O)N2[C@H](C(=O)Nc3cccc(C(F)(F)F)c3F)C[C@@]3(C)C[C@@H]23)c2cnc(-c3cnc(C)nc3)cc12 [Compound 23, (1R,3S,5R)-2-(2-(3-Acetyl-5-(2-methylpyrimidin-5-yl)-1H-pyrazolo[3,4-C]pyridine-1-yl)acetly)-N-(2-fluoro-3-(trifluoromethyl)phenyl)-5-methyl-2-azabicyclo[3.1.0]hexane-3-carboxamide] | < 1000 |
| CC(=O)c1nn(CC(=O)N2[C@H](C(=O)Nc3cccc(C(F)(F)F)c3F)C[C@@]3(C)C[C@@H]23)c2ccc(-c3cnc(C)nc3)cc12 [Compound 24, (1R,3S,5R)-2-(2-(3-Acetyl-5-(2-methylpyrimidin-5-yl)-1H-indazol-1-yl)acetyl)-N-(2-fluoro-3-(trifluoromethyl)phenyl)-5-methyl-2-azabicyclo[3.1.0]hexane-3-carboxamide] | < 1000 |
| CC(=O)c1nn(CC(=O)N2[C@H](C(=O)Nc3cccc(C(F)(F)F)c3F)C[C@@]3(C)C[C@@H]23)c2ccc(-c3cnc4cc(C)nn4c3)cc12 [Compound 25, (1R,3S,5R)-2-(2-(3-Acetyl-5-(2-methylpyrazolol[1,5-A]pyrimidin-6-yl)-1H-indazol-1-yl)acetyl)-N-(2-fluoro-3-(trifluoromethyl)phenyl)-5-methyl-2-azabicyclo[3.1.0]hexane-3-carboxamide] | < 1000 |
| CC(=O)c1nn(CC(=O)N2[C@H](C(=O)N[C@@H](C)[C@H]3CC3(Cl)Cl)C[C@@]3(C)C[C@@H]23)c2ccc(-c3cnc(C)nc3)cc12 [Compound 26, (1R,3S,5R)-2-(2-(3-acetyl-5-(2-methylpyrimidin-5-yl)-1H-indazol-1-yl)acetyl)-N-((S)-1-((R)-2,2-dichlorocyclo-propyl)ethyl)-5-methyl-2-azabicyclo[3.1.0] hexane-3-carboxamide] | < 1000 |
| CC(=O)c1nn(CC(=O)N2[C@H](C(=O)Nc3nc(Br)ccc3C)C[C@@]3(C)C[C@@H]23)c2c(C)cc(-c3cnc(CO)nc3)cc12 [Compound 27, (1R,3S,5R)-2-(2-(3-Acetyl-5-(2-(hydroxymethyl)pyrimidin-5-yl)-7-methyl-1H-indazol-1-yl)acetyl)-N-(6-bromo-3-methylpyridin-2-yl)-5-methyl-2-azabicyclo[3.1.0]hexane-3-carboxamide] | < 1000 |
| CC(=O)c1nn(CC(=O)N2[C@H](C(=O)Nc3nc(Br)ccc3C)C[C@@]3(C)C[C@@H]23)c2c(C)cc(-c3cnc(C)nc3O)cc12 [Compound 28, (1R,3S,5R)-2-(2-(3-acetyl-5-(4-hydroxy-2-methylpyrimidin-5-yl)-7-methyl-1H-indazol-1-yl)acetyl)-N-(6-bromo-3-methylpyridin-2-yl)-5-methyl-2-azabicyclo[3.1.0]hexane-3-carboxamide] | < 1000 |
| CC(=O)c1nn(CC(=O)N2C[C@H](F)C[C@H]2C(=O)Nc2cccc(Br)n2)c2ccc(-c3ccc(C)cc3)cc12 [Compound 29, (2S,4R)-1-(2-(3-Acetyl-5-(p-tolyl)-1H-indazol-1-yl)acetyl)-N-(6-bromopyridin-2-yl)-4-fluoropyrrolidine-2-carboxamide] | < 1000 |
| CC(=O)c1nn(CC(=O)N2[C@H](C(=O)Nc3nc(Br)ccc3C)C[C@@]3(C)C[C@@H]23)c2ccc(-c3cnc(CO)nc3)cc12 [Compound 30, (1R,3S,5R)-2-(2-(3-acetyl-5-(2-(hydroxymethyl)pyrimidin-5-yl)-1H-indazol-1-yl)acetyl)-N-(6-bromo-3-methylpyridin-2-yl)-5-methyl-2-azabicyclo[3.1.0]hexane-3-carboxamide] | < 1000 |
| CC(=O)c1nn(CC(=O)N2[C@H](C(=O)Nc3nc(Br)ccc3C)C[C@@]3(CO)C[C@@H]23)c2c(C)cc(-c3cnc(CO)nc3)cc12 [Compound 31] | < 1000 |
| CC(=O)c1nn(CC(=O)N2[C@H](C(=O)Nc3nc(Br)ccc3C)C[C@@]3(CO)C[C@@H]23)c2ccc(-c3cnc(CO)nc3)cc12 [Compound 32, (1R,3S,5S)-2-(2-(3-Acetyl-5-(2-(hydroxymethyl)pyrimidin-5-yl)-1H-indazol-1-yl)acetyl)-N-(6-bromo-3-methylpyridin-2-yl)-5-(hydroxymethyl)-2-azabicyclo[3.1.0]hexane-3-carboxamide] | < 1000 |
| CC(=O)c1nn(CC(=O)N2C[C@H](F)C[C@H]2C(=O)Nc2cccc(Br)n2)c2ccc(-c3ccc(C)nc3)cc12 [Compound 33] | < 1000 |
| CC(=O)c1nn(CC(=O)N2C[C@H](F)C[C@H]2C(=O)Nc2cccc(Br)n2)c2ccc(-c3ccc(C)c(F)c3)cc12 [Compound 34, (2S,4R)-1-(2-(3-Acetyl-5-(3-fluoro-4-methylphenyl)-1H-indazol-1-yl)acetyl)-N-(6-bromopyridin-2-yl)-4-fluoropyrrolidine-2-carboxamide] | < 1000 |
| CC(=O)c1nn(CC(=O)N2C[C@H](F)C[C@H]2C(=O)Nc2cccc(Br)n2)c2ccc(-c3ccc(C)nn3)cc12 [Compound 35, (2S,4R)-1-(2-(3-Acetyl-5-(6-methylpyridazin-3-yl)-1H-indazol-1-yl)acetyl)-N-(6-bromopyridin-2-yl)-4-fluoropyrrolidine-2-carboxamide] | < 1000 |
| CC(=O)c1nn(CC(=O)N2C[C@H](F)C[C@H]2C(=S)Nc2cccc(Br)n2)c2ccc(-c3cnc(C)nc3)cc12 [Compound 36, (2S,4R)-1-(2-(3-Acetyl-5-(2-methylpyrimidin-5-yl)-1H-indazol-1-yl)acetyl)-N-(6-bromopyridin-2-yl)-4-fluoropyrrolidine-2-carbothioamide] | < 1000 |
| CC(=O)c1nn(CC(=O)N2C[C@H](F)C[C@H]2C(=O)Oc2cccc(Br)n2)c2ccc(-c3cnc(C)nc3)cc12 [Compound 37, (2S,4R)-6-Bromopyridin-2-yl 1-(2-(3-acetyl-5-(2-methylpyrimidin-5-yl)-1H-indazol-1-yl)acetyl)-4-fluoropyrrolidine-2-carboxylate] | 1000 to 10000 |
| COC(=O)c1ncc(-c2cc(C)c3c(c2)c(C(C)=O)nn3CC(=O)N2[C@H](C(=O)Nc3nc(Br)ccc3C)C[C@@]3(C)C[C@@H]23)cn1 [Compound 38, methyl 5-(3-acetyl-1-(2-((1R,3S,5R)-3-((6-bromo-3-methylpyridin-2-yl)carbamoyl)-5-methyl-2-azabicyclo[3.1.0]hexan-2-yl)-2-oxoethyl)-7-methyl-1H-indazol-5-yl)pyrimidine-2-carboxylate] | < 1000 |
| CC(=O)c1nn(CC(=O)N2[C@H](C(=O)Nc3nc(Br)ccc3C)C[C@@]3(C)C[C@@H]23)c2c(C)cc(-c3cnc(C(=O)O)nc3)cc12 [Compound 39, 5-(3-acetyl-1-(2-((1R,3S,5R)-3-((6-bromo-3-methylpyridin-2-yl)carbamoyl)-5-methyl-2-azabicyclo[3.1.0]hexan-2-yl)-2-oxoethyl)-7-methyl-1H-indazol-5-yl)pyrimidine-2-carboxylic acid] | < 1000 |

Same assay, conditions: Human Factor D 80 nM, substrate Z-L-Lys-SBzl; Table 2; read-out: IC50 (Stars)

| SMILES | IC50 [nM] |
| --- | --- |
| CC(=O)c1nn(CC(=O)N2[C@H](C(=O)Nc3nc(Br)ccc3C)C[C@@]3(C)C[C@@H]23)c2c(C)cc(-c3cnc(C(C)(C)O)nc3)cc12 [Compound 41, (1R,3S,5R)-2-(2-(3-acetyl-5-(2-(2-hydroxypropan-2-yl)pyrimidin-5-yl)-7-methyl-1H-indazol-1-yl)acetyl)-N-(6-bromo-3-methylpyridin-2-yl)-5-methyl-2-azabicyclo[3.1.0]hexane-3-carboxamide] | < 1000 |
| COC(=O)c1ncc(-c2cc(C)c3c(c2)c(C(C)=O)nn3CC(=O)N2[C@H](C(=O)Nc3cncc(Br)n3)C[C@@]3(C)C[C@@H]23)cn1 [Compound 42, Methyl 5-(3-acetyl-1-(2-((1R,3S,5R)-3-((6-bromopyrazin-2-yl)carbamoyl)-5-methyl-2-azabicyclo[3.1.0]hexan-2-yl)-2-oxoethyl)-7-methyl-1H-indazol-5-yl)pyrimidine-2-carboxylate] | < 1000 |
| CC(=O)c1nn(CC(=O)N2[C@H](C(=O)Nc3cncc(Br)n3)C[C@@]3(C)C[C@@H]23)c2c(C)cc(-c3cnc(C(=O)O)nc3)cc12 [Compound 43, 5-(3-acetyl-1-(2-((1R,3S,5R)-3-((6-bromopyrazin-2-yl)carbamoyl)-5-methyl-2-azabicyclo[3.1.0]hexan-2-yl)-2-oxoethyl)-7-methyl-1H-indazol-5-yl)pyrimidine-2-carboxylic acid] | < 1000 |
| COC(=O)c1ncc(-c2cc(C)c3c(c2)c(C(C)=O)nn3CC(=O)N2[C@H](C(=O)Nc3nc(Br)c(F)cc3C)C[C@@]3(C)C[C@@H]23)cn1 [Compound 44, Methyl 5-(3-acetyl-1-(2-((1R,3S,5R)-3-((6-bromo-5-fluoro-3-methylpyridin-2-yl)carbamoyl)-5-methyl-2-azabicyclo[3.1.0]hexan-2-yl)-2-oxoethyl)-7-methyl-1H-indazol-5-yl)pyrimidine-2-carboxylate] | < 1000 |
